Experimental data: US20240270724A1, “GALECTIN-3 INHIBITING C-GLYCOSIDES” (GLYCOMIMETICS, INC., priority 2021, published 2024)

Columns and labels:
[1] = target: T1, galectin-3 (Homo sapiens, UniProt P17931); experiment: Galectin-3 activity ELISA assay: inhibition of galectin-3 binding to immobilized Galβ1-3GlcNAc polymer; settings: inhibition of galectin-3 binding to Galβ1-3GlcNAc polymer, average (± standard deviation) where assayed more than once
T1 construct: purchased IBL IBATGP0414
Description: An inhibition assay may be used to screen for antagonists of galectin-3. For example, an assay may be performed to characterize the capability of a compound described herein to inhibit interaction of galectin-3 with a Galβ1-3GlcNAc carbohydrate structure. The inhibition assay may be a competitive binding assay, which allows the determination of IC50 values. By way of example, a Galβ1-3GlcNAc polymer may be immobilized onto a matrix; a composition may be added to reduce nonspecific binding; the immobilized Galβ1-3GlcNAc polymer may be contacted with the candidate compound in the presence of galectin-3 group under conditions and for a time sufficient to permit galectin-3 to bind to the immobilized Galβ1-3GlcNAc polymer; the immobilized Galβ1-3GlcNAc polymer may be washed; and the amount of galectin-3 bound to the immobilized Galβ1-3GlcNAc polymer may be detected. Variations of such steps can be readily and routinely accomplished by a person of ordinary skill in the art.
Galectin-3 antagonists were evaluated for their ability to inhibit binding of galectin-3 to a Galβ1-3GlcNAc carbohydrate structure. The detailed protocol was as follows. A 1 μg/mL suspension of a Galβ1-3GlcNAcβ1-3Galβ1-4GlcNAcβ-PAA-biotin polymer (Glycotech, catalog number 01-096) was prepared. A 100 μL aliquot of the polymer was added to the wells of a 96-well streptavidin-coated plate (R&D Systems, catalog number CP004). A 100 μL aliquot of 1× Tris Buffered Saline (TBS, Sigma, catalog number T5912-10X) was added to control wells. The polymer was allowed to bind to the streptavidin-coated wells for 1.5 hours at room temperature. The contents of the wells were discarded, and 200 μL of 1×TBS containing 1% bovine serum albumin (BSA) was added to each well as a blocking reagent and the plate was kept at room temperature for 30 minutes. The wells were washed three times with 1×TBS containing 0.1% BSA. A serial dilution of test compounds was prepared in a separate V-bottom plate (Corning, catalog number 3897). A 75 μL aliquot of the highest concentration of the compound to be tested was added to the first well in a column of the V-bottom plate, then 15 μL were serially transferred into 60 μL 1×TBS through the remaining wells in the column to generate a 1 to 5 serial dilution. A 60 μL aliquot of 2 μg/mL galectin-3 (IBL, catalog number IBATGP0414) was added to each well in the V-bottom plate. A 100 μL aliquot of the galectin-3 test compound mixture was transferred from the V-bottom plate into the assay plate containing the Galβ1-3GlcNAc polymer. Four sets of control wells in the assay plate were prepared in duplicate containing 1) both Galβ1-3GlcNAc polymer and galectin-3, 2) neither the polymer nor galectin-3, 3) galectin-3 only, no polymer, or 4) polymer only, no galectin-3. The plate was gently rocked for 1.5 hours at room temperature. The wells were washed four times with TBS/0.1% BSA. A 100 μL aliquot of anti-galectin-3 antibody conjugated to horse radish peroxidase (R&D Systems, from DGAL30 kit) was added to each well, and the plate was kept at room temperature for 1 hour. The wells were washed four times with TBS/0.1% BSA. A 100 μL aliquot of TMB substrate solution was added to each well. The TMB substrate solution was prepared by making a 1:1 mixture of TMB Peroxidase Substrate (KPL, catalog number 5120-0048) and Peroxidase Substrate Solution B (KPL, catalog number 5120-0037). The plate was kept at room temperature for 10 to 20 minutes. The color development was stopped by adding 100 uL 10% phosphoric acid (RICCA Chemical Co., catalog number 5850-16). The absorbance at 450 nm (A450) was measured using a FlexStation 3 plate reader (Molecular Devices). Plots of A450 versus test compound concentration and IC50 determinations were made using GraphPad Prism 6. The number of assays run (n) for each compound is recorded in the following table.

[2] = target: T2, carbohydrate recognition domain of human galectin-3 (Galectin-3-CRD) (Homo sapiens, UniProt P17931); experiment: Galectin-3 activity microscale thermophoresis assay; format: binding; settings: label-free MST, 20 nM galectin-3-CRD; average of all assays (± standard deviation), each assay in triplicate
T2 construct: The carbohydrate recognition domain of human galectin-3 (Servesto Galectin-3-CRD) was diluted; purchased Servesto
T2 sequence (P17931 118-248 limits assumed): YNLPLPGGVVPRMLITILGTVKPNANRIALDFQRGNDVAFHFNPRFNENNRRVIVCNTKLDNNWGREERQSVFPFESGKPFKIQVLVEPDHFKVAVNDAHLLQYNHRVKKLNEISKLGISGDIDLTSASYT
Experimental: The carbohydrate recognition domain of human galectin-3 (Servesto Galectin-3-CRD) was diluted with PBS+0.1% F127 to 40 nM. Separately, a 40 uM stock of Compound 45 in DMSO was diluted down to 4 uM in PBS+0.1% F127 and serially diluted in sixteen steps using a dilution factor of 1 to 2 in 10% DMSO+PBS+0.1% F127. To each sample in the serial dilution of Compound 45, 10 ul of 40 nM Galectin-3-CRD was added, yielding final concentrations of 20 nM galectin-3-CRD and 5% DMSO+PBS+0.1% F127. NT.LabelFree Zero background Standard Treated Capillaries were filled with the prepared solutions then loaded into the Monolith NT Label-Free MST instrument. The reaction was measured with 100% excitation power of LED and medium (40%) MST power. Binding curves and Kd values were generated using MO affinity analysis. Each assay was run in triplicate. Some compounds were subjected to more than one assay run in triplicate.

T1 sequence (P17931 whole entry): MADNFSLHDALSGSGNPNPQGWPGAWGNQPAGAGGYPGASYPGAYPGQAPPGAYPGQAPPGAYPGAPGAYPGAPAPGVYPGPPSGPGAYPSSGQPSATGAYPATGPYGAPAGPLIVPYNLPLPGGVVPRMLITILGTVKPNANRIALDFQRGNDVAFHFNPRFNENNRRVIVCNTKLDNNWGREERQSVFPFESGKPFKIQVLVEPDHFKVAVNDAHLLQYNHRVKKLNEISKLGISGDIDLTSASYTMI

SMILES	IC50 [1]	Kd [2]
[2H]C([2H])([2H])OC1C(n2cc(-c3cc(F)c(F)c(F)c3)nn2)[C@@H](O)C(CO)O[C@H]1[C@H](OCc1ccc(Br)cc1)C(=O)NC(C)C (stereo partly shown) [Compound 45]	171 nM	8.9 nM
COC1C(n2cc(-c3cc(F)c(F)c(F)c3)nn2)[C@@H](O)C(CO)O[C@H]1[C@H](OCc1ccc(Br)cc1)C(=O)NC(C)C (stereo partly shown) [Compound 23]	271 nM	1.7 nM
[2H]C([2H])([2H])OC1C(n2cc(-c3cc(F)c(F)c(F)c3)nn2)[C@@H](O)C(CO)O[C@H]1[C@H](OCc1ccc(Br)cc1)C(=O)N(C)C (stereo partly shown) [Compound 68]	709 nM	87 nM
[2H]C([2H])([2H])OC1C(n2cc(-c3cc(F)c(F)c(F)c3)nn2)[C@@H](O)C(CO)O[C@H]1[C@H](OCc1ccc(Br)cc1)C(=O)N[C@H]1C[C@H]1F (stereo partly shown) [Compound 65]	364 nM	13 nM
[2H]C([2H])([2H])OC1C(n2cc(-c3cc(F)c(F)c(F)c3)nn2)[C@@H](O)C(CO)O[C@H]1[C@H](OCc1ccc(Br)cc1)C(=O)NC1COC1 (stereo partly shown) [Compound 64]	236 nM	18 nM
[2H]C([2H])([2H])OC1C(n2cc(-c3cc(F)c(F)c(F)c3)nn2)[C@@H](O)C(CO)O[C@H]1[C@H](OCc1ccc(Br)cc1)C(=O)NC1(C)CC1 (stereo partly shown) [Compound 50]	201 nM	10 nM
COC1C(n2cc(-c3cc(F)c(F)c(F)c3)nn2)[C@@H](O)C(CO)O[C@H]1[C@H](OCc1ccc(Br)cc1)C(=O)O (stereo partly shown) [Compound 76]	470 nM	31 nM
[2H]C([2H])([2H])OC1C(n2cc(-c3cc(F)c(F)c(F)c3)nn2)[C@@H](O)C(CO)O[C@H]1[C@H](OCc1ccc(Br)cc1)C(=O)NC1CC1(F)F (stereo partly shown) [Compound 62]	826 nM	11 nM
COC1C(n2cc(-c3cc(F)c(F)c(F)c3)nn2)[C@@H](O)C(CO)O[C@H]1[C@H](OCc1ccc(Br)cc1)C(=O)NCCO (stereo partly shown) [Compound 70]	192 nM	20 nM
CC(C)OC(=O)[C@@H](OCc1ccc(Cl)cc1)[C@@H]1OC(CO)[C@H](O)C(n2cc(-c3cc(F)c(F)c(F)c3)nn2)C1O (stereo partly shown) [Compound 86, reference compound]	184 nM	0.4 nM
CC(C)NC(=O)[C@@H](OCc1ccc(Br)cc1)[C@@H]1OC(CO)[C@H](O)C(n2cc(-c3cc(F)c(F)c(F)c3)nn2)C1O (stereo partly shown) [Compound 44]	291 nM	12 nM
COC1C(n2cc(-c3cc(F)c(F)c(F)c3)nn2)[C@@H](O)C(CO)O[C@H]1[C@H](OCc1ccc(Cl)cc1)C(=O)OC(C)C (stereo partly shown) [Compound 87, reference compound]	724 nM	20 nM
COC1C(n2cc(-c3cc(F)c(F)c(F)c3)nn2)[C@@H](O)C(CO)O[C@H]1[C@H](OCc1ccc(Cl)cc1)C(=O)NC(C)C (stereo partly shown) [Compound 89, reference compound]	427 nM	70 nM
COCCCNC(=O)[C@@H](OCc1ccc(Br)cc1)[C@@H]1OC(CO)[C@H](O)C(n2cc(-c3cc(F)cc(F)c3)nn2)C1O (stereo partly shown) [Compound 35]	391 nM	21 nM
COCCCNC(=O)[C@@H](OCc1ccc(Br)cc1)[C@@H]1OC(CO)[C@H](O)C(n2cc(-c3cc(F)c(F)c(F)c3)nn2)C1O (stereo partly shown) [Compound 36]	204 nM	14 nM
[2H]C([2H])([2H])OC1C(n2cc(-c3cc(F)c(F)c(F)c3)nn2)[C@@H](O)C(CO)O[C@H]1[C@H](OCc1ccc(Br)cc1)C(=O)NC1CNC1 (stereo partly shown) [Compound 63]	51 nM	22 nM
[2H]C([2H])([2H])OC1C(n2cc(-c3cc(F)c(F)c(F)c3)nn2)[C@@H](O)C(CO)O[C@H]1[C@H](OCc1ccc(Cl)c(F)c1)C(=O)NC(C)C (stereo partly shown) [Compound 90, reference compound]	1190 nM	25 nM
COC1C(n2cc(-c3cc(F)c(F)c(F)c3)nn2)[C@@H](O)C(CO)O[C@H]1[C@H](OCc1ccc(Br)cc1)C(=O)OC(C)C (stereo partly shown) [Compound 43]	103 nM	12 nM
[2H]C([2H])([2H])OC1C(n2cc(-c3cc(F)c(F)c(F)c3)nn2)[C@@H](O)C(CO)O[C@H]1[C@H](OCc1ccc(Br)cc1)C(=O)NC1(CO)CC1 (stereo partly shown) [Compound 75]	938 nM	21 nM
CNC(=O)[C@@H](OCc1ccc(Cl)cc1)[C@@H]1OC(CO)[C@H](O)C(n2cc(-c3cc(F)c(F)c(F)c3)nn2)C1OC (stereo partly shown) [Compound 84, reference compound]	386 nM	18 nM
COCCCNC(=O)[C@@H](OCc1ccc(Br)cc1)[C@@H]1OC(CO)[C@H](O)C(n2cc(-c3cc(F)cc(F)c3)nn2)C1OC (stereo partly shown) [Compound 21]	474 nM	33 nM
[2H]C([2H])([2H])OC1C(n2cc(-c3cc(F)c(F)c(F)c3)nn2)[C@@H](O)C(CO)O[C@H]1[C@H](OCc1ccc(Br)cc1)C(=O)NC1(C(F)(F)F)CC1 (stereo partly shown) [Compound 51]	702 nM	17 nM
COCCCNC(=O)[C@@H](OCc1ccc(Br)cc1)[C@@H]1OC(CO)[C@H](O)C(n2cc(-c3cc(F)c(F)c(F)c3)nn2)C1OC (stereo partly shown) [Compound 20]	265 nM	36 nM
[2H]C([2H])([2H])OC1C(n2cc(-c3cc(F)c(F)c(F)c3)nn2)[C@@H](O)C(CO)O[C@H]1[C@H](OCc1ccc(Br)cc1)C(=O)NC1CC(F)(F)C1 (stereo partly shown) [Compound 66]	143 nM	3.6 nM
[2H]C([2H])([2H])OC1C(n2cc(-c3cc(F)c(F)c(F)c3)nn2)[C@@H](O)C(CO)O[C@H]1[C@H](OCc1ccc(Br)cc1)C(=O)NC(C)(C)CO (stereo partly shown) [Compound 74]	216 nM	20 nM
COC1C(n2cc(-c3cc(F)c(F)c(F)c3)nn2)[C@@H](O)C(CO)O[C@H]1[C@H](OCc1ccc(Cl)cc1)C(=O)N(C)C (stereo partly shown) [Compound 83, reference compound]	2910 nM	570 nM
